Source: patent US20170165374A1, “COMPOSITIONS AND METHODS FOR TREATING BACTERIAL INFECTIONS” (Insmed, Inc., priority 2015, published 2017)
Structures can show the parent of a compound that is named as a salt.

Columns and labels:
Assay type in all cases: cell-based
[1] = tested on: M. abscessus clinical isolate Stanford A; assay: Intracellular CFU in M. abscessus infected THP-1 cells (THP-1 NTM model), Stanford A
Procedure: (§1) THP-1 cells were seeded in PMA and cultured for 48 hours, exposed to M. abscessus (type strain 19977 or clinical isolate Stanford A or NIH26) at multiplicity of infection (MOI) of approx. 2 for 1 hour followed by incubation with […] amikacin sulfate for 23 hours to reduce the extracellular NTM population. Liposomal amikacin formulations were added at 16, 32, 64, and 128 μg/mL of active concentration and incubated for 24 hours at 37° C. At the end of four 24 hour treatment cycles, cells were washed, lysed, serially diluted, plated, and incubated at 37° C. for 4 days to determine final intracellular CFU counts. Formulations were loaded with streptomycin and tested against the M. abscessus strains 19977 and Stanford A. Results are shown in Table 8.

[2] = tested on: M. abscessus type strain 19977; assay: Intracellular CFU in M. abscessus infected THP-1 cells (THP-1 NTM model), strain 19977
Procedure: as §1

[3] = tested on: M. abscessus clinical isolate NIH26; assay: Intracellular CFU in M. abscessus infected THP-1 cells (THP-1 NTM model), NIH26; conditions: NIH 26, 128 μg/mL amikacin
Procedure: as §1, with “counts.” for “counts. Formulations were loaded with streptomycin and tested against the M. abscessus strains 19977 and Stanford A. Results are shown in Table 8.”

[4] = 128 μg/mL streptomycin sulfate, vs pretreatment
[5] = 128 μg/mL amikacin, vs pretreatment

| Compound | In vitro killing (CFU remaining after 96 h treatment with 128 μg/mL streptomycin sulfate in THP-1 NTM model) ([1]; 128 μg/mL streptomycin sulfate) [CFU] | In vitro killing (addtl. % CFU killed compared to pretreatment after 96 h treatment with 128 μg/mL streptomycin sulfate in THP-1 NTM model) [1, 4] [%] | In vitro killing (CFU remaining after 96 h treatment with 128 μg/mL streptomycin sulfate in THP-1 NTM model) ([2]; 128 μg/mL streptomycin sulfate) [CFU] | In vitro killing (addtl. % CFU killed compared to pretreatment after 96 h treatment with 128 μg/mL streptomycin sulfate in THP-1 NTM model) [2, 4] [%] | In vitro killing (CFU remaining after 96 h treatment with 128 μg/mL ami-in THP-1 NTM model) ([1]; 128 μg/mL amikacin) [CFU] | In vitro killing (additional % CFU killed compared to pretreatment after 96 h treatment with 128 μg/mL ami in THP-1 NTM model) [1, 5] [%] | In vitro killing (CFU remaining after 96 h treatment with 128 μg/mL ami-in THP-1 NTM model) [3] [CFU] | In vitro killing (additional % CFU killed compared to pretreatment after 96 h treatment with 128 μg/mL ami in THP-1 NTM model) ([3]; vs pretreatment) [%] | In vitro killing (CFU remaining after 96 h treatment with 128 μg/mL ami-in THP-1 NTM model) ([2]; 128 μg/mL amikacin) [CFU] | In vitro killing (additional % CFU killed compared to pretreatment after 96 h treatment with 128 μg/mL ami in THP-1 NTM model) [2, 5] [%] |
| --- | --- | --- | --- | --- | --- | --- | --- | --- | --- | --- |
| [H]/N=C(/N)N[C@H]1[C@H](O)[C@@H](O)[C@H](O[C@@H]2O[C@@H](C)[C@](O)(C=O)[C@H]2O[C@@H]2O[C@@H](CO)[C@H](O)[C@@H](O)[C@@H]2NC)[C@@H](N/C(N)=N\[H])[C@@H]1O [free streptomycin sulfate, streptomycin sulfate] | 424000 | 27.4 | 408000 | 35.8 | – | – | – | – | – | – |
| NCC[C@H](O)C(=O)N[C@@H]1C[C@H](N)[C@@H](O[C@H]2O[C@H](CN)[C@@H](O)[C@H](O)[C@H]2O)[C@H](O)[C@H]1O[C@H]1O[C@H](CO)[C@@H](O)[C@H](N)[C@H]1O [free ami, amikacin] | – | – | – | – | 135000 | 75 | 214667 | 37.4 | 135000 | 50.1 |
